Test results: US11976054B2, “Amide derivative and preparation method therefore and use thereof in medicine” (Chengdu Baiyu Pharmaceutical Co., Ltd., priority 2019, dated 2024)

Test system: Human monocyte cell line THP-1
Experiment: Detection of THP-1 cell pyroptosis (Caspase-Glo 1 Inflammasome Assay)
Type: cell-based
Conditions: Homo sapiens, THP-1, THP-1 pyroptosis, 20 nM PMA 48 h, 1 μg/mL LPS, compound 3 h
Protocol: Human monocyte cell line THP-1 (ATCC® TB-202TM) was cultured in RPMI-1640 culture medium containing […], 1 mM pyruvic acid, 0.05 mM β-mercaptoethanol and 10% double antibody under the culture conditions of 37° C. and […].
Cell counting was performed, THP-1 cells were seeded into a 96-well plate at 50000 per well, and 20 nM PMA was added for inducing at 37° C./5% CO2 for 48 h. The culture medium was then discarded, and 100 μL of serum-free RPMI-1640 medium containing 1 μg/mL LPS was added. 5 μL of compound or solvent control was added and 3-fold diluted in gradient from a maximum concentration of 10 μM, and 10 gradient concentrations were set. The mixtures were incubated at 37° C./5% CO2 for 3 h. After the incubation, the mixtures were centrifuged at 300 g for 5 min, and the culture medium was discarded. Pyroptosis assay was performed according to specific steps described in instructions of Caspase-Glo® 1 Inflammasome Assay kit. IC50 was calculated using GraphPad Prism7.0 software.

**Q.** For [2H]c1cc([C@@H](C)C2CC2)c(NC(=O)NS(=O)(=O)c2cc(C(C)(C)O)co2)c2c1CCC2 [Compound 30, (S)-N-((5-(1-cyclopropylethyl)-2,3-dihydro-1H-inden-4-yl-7-d)carbamoyl)-4-(2-hydroxypropan-2-yl)furan-2-sulfonamide], which IC50 is on record?
**A.** 1000 to 5000 nM

**Q.** With C[C@@H](c1ccc2c(c1NC(=O)NS(=O)(=O)c1cc(C3(O)CC3)co1)CCC2)C1CC1 [Compound 59, (R)-N-((5-(1-cyclopropylethyl)-2,3-dihydro-1H-inden-4-yl)carbamoyl)-4-(1-hydroxycyclopropyl)furan-2-sulfonamide] as the compound, how does the IC50 read?
**A.** 500 to 1000 nM

**Q.** With C[C@H](c1ccc2c(c1NC(=O)NS(=N)(=O)c1ccc(C3(O)COC3)s1)CCC2)C1CC1 (stereo partly drawn) [Compound 65C, N-((5-((S)-1-cyclopropylethyl)-2,3-dihydro-1H-inden-4-yl)carbamoyl)-5-(3-hydroxyoxetan-3-yl)thiophene-2-sulfonimidamide] as the compound, how does the IC50 read?
**A.** 100 to 500 nM

**Q.** Which IC50 does the source give for CC(C)c1cccc([C@@H](C)C2CC2)c1NC(=O)NS(=O)(=O)c1cc(C(C)(C)O)co1 [Compound 71, (S)-N-((2-(1-cyclopropylethyl)-6-isopropylphenyl)carbamoyl)-4-(2-hydroxypropan-2-yl)furan-2-sulfonamide] here?
**A.** 100 to 500 nM

**Q.** Which IC50 does the source give for CC(C)(O)c1coc(S(=O)(=O)NC(=O)Nc2c(C(C3CC3)C3CC3)ccc3c2CCC3)c1 [Compound 86, N-((5-(dicyclopropylmethyl)-2,3-dihydro-1H-inden-4-yl)carbamoyl)-4-(2-hydroxypropan-2-yl)furan-2-sulfonamide] here?
**A.** 500 to 1000 nM

**Q.** For C[C@@H](c1ccc2c(c1NC(=O)NS(=O)(=O)c1cc(C(C)(C)O)co1)CCC2)C1CCC1 [Compound 79, (R)-N-((5-(1-cyclobutylethyl)-2,3-dihydro-1H-inden-4-yl)carbamoyl)-4-(2-hydroxypropan-2-yl)furan-2-sulfonamide], which IC50 is on record?
**A.** 100 to 500 nM

**Q.** Which IC50 does the source give for CC(c1ccc2c(c1NC(=O)NS(=O)(=O)c1cc(C(C)(C)O)co1)CCC2)C1CCC1 (stereo not shown) [Compound 15, N-((5-(1-cyclobutylethyl)-2,3-dihydro-1H-inden-4-yl)carbamoyl)-4-(2-hydroxypropan-2-yl)furan-2-sulfonamide] here?
**A.** 100 to 500 nM

**Q.** With C[C@@H](c1ccc2c(c1NC(=O)N[S@@](=N)(=O)c1cc(C(C)(C)O)cs1)CCC2)C1CC1 [Compound 55-1] as the compound, how does the IC50 read?
**A.** 100 to 500 nM

**Q.** With CC(C)(O)c1coc(S(=O)(=O)NC(=O)Nc2c(CC3CCCC3)ccc3c2CCC3)c1 [Compound 28, N-((5-(cyclopentylmethyl)-2,3-dihydro-1H-inden-4-yl)carbamoyl)-4-(2-hydroxypropan-2-yl)furan-2-sulfonamide] as the compound, how does the IC50 read?
**A.** 500 to 1000 nM

**Q.** Which IC50 does the source give for CC(c1ccc2c(c1NC(=O)NS(=O)(=O)c1cc(C(C)(C)O)co1)CCC2)C1CC1 (stereo not shown) [Compound 1, N-((5-(1-cyclopropylethyl)-2,3-dihydro-1H-inden-4-yl)carbamoyl)-4-(2-hydroxypropan-2-yl)furan-2-sulfonamide] here?
**A.** 100 to 500 nM

**Q.** For C[C@H](c1ccc2c(c1NC(=O)NS(=O)(=O)c1cnc(C(C)(C)O)s1)CCC2)C1CC1 [Compound 88, (S)-N-((5-(1-cyclopropylethyl)-2,3-dihydro-1H-inden-4-yl)carbamoyl)-2-(2-hydroxypropan-2-yl)thiazole-5-sulfonamide], which IC50 is on record?
**A.** 100 to 500 nM

**Q.** With C[C@H](c1ccc2c(c1NC(=O)N[S@@](=N)(=O)c1cc(C(C)(C)O)cs1)CCC2)C1CC1 [Compound 54-1] as the compound, how does the IC50 read?
**A.** 1000 to 5000 nM

**Q.** For O=C(Nc1c(CC2CCC2)ccc2c1CCC2)NS(=O)(=O)c1cc(C2(O)CC2)co1 [Compound 61, N-((5-(cyclobutylmethyl)-2,3-dihydro-1H-inden-4-yl)carbamoyl)-4-(1-hydroxycyclopropyl)furan-2-sulfonamide], which IC50 is on record?
**A.** 1000 to 5000 nM

**Q.** For C[C@H](c1ccc2c(c1NC(=O)NS(=O)(=O)c1cc(C3(O)CC3)co1)CCC2)C1CC1 [Compound 60, (S)-N-((5-(1-cyclopropylethyl)-2,3-dihydro-1H-inden-4-yl)carbamoyl)-4-(1-hydroxycyclopropyl)furan-2-sulfonamide], which IC50 is on record?
**A.** 100 to 500 nM

**Q.** With COc1cc(-c2cc(F)cc(C(C)C3CC3)c2NC(=O)NS(=O)(=O)c2cc(C(C)(C)O)co2)ccn1 (stereo not shown) [Compound 4, N-((2-(1-cyclopropylethyl)-4-fluoro-6-(2-methoxypyridin-4-yl)phenyl)carbamoyl)-4-(2-hydroxypropan-2-yl)furan-2-sulfonamide] as the compound, how does the IC50 read?
**A.** 100 to 500 nM

**Q.** For CC(C)(O)c1csc(S(=N)(=O)NC(=O)Nc2c(CC3CCC3)ccc3c2CCC3)c1 (stereo not shown) [Compound 83A, N-((5-(cyclobutylmethyl)-2,3-dihydro-1H-inden-4-yl)carbamoyl)-4-(2-hydroxypropan-2-yl)thiophene-2-sulfonimidamide], which IC50 is on record?
**A.** ≤ 100 nM

**Q.** Which IC50 does the source give for C[C@@H](c1ccc2c(c1NC(=O)NS(=O)(=O)c1cc(C(C)(C)O)co1)CCC2)C1CC1 [Compound 5, (R)-N-((5-(1-cyclopropylethyl)-2,3-dihydro-1H-inden-4-yl)carbamoyl)-4-(2-hydroxypropan-2-yl)furan-2-sulfonamide] here?
**A.** ≤ 100 nM

Same assay, conditions: THP-1 pyroptosis, 20 nM PMA 48 h, 1 μg/mL LPS, compound 3 h

**Q.** For C[C@@H](c1ccc2c(c1NC(=O)NS(=N)(=O)c1cc(C(C)(C)O)co1)CC2)C1CC1 (mixture of isomers) [Compound 38-2, RS- and SS-N-((3-((R)-1-cyclopropylethyl)bicyclo[4.2.0]octa-1(6),2,4-trien-2-yl)carbamoyl)-4-(2-hydroxypropan-2-yl)furan-2-sulfonimidamide], which IC50 is on record?
**A.** 1000 to 5000 nM

**Q.** For [2H]c1cc([C@@H](C)C2CC2)c(NC(=O)NS(=N)(=O)c2cc(C(C)(C)O)co2)c2c1CCC2 (single isomer, unassigned) [Compound 32-1, (RS, SC)- and (SS, SC)-N-((5-(1-cyclopropylethyl)-2,3-dihydro-1H-inden-4-yl-7-d)carbamoyl)-4-(2-hydroxypropan-2-yl)furan-2-sulfonimidamide], which IC50 is on record?
**A.** 1000 to 5000 nM

**Q.** With CC(c1ccc2c(c1NC(=O)NS(=N)(=O)c1cnc(C(C)(C)O)s1)CCC2)C1CC1 (racemic) [Compound 20-2, (RS, SC)- and (SS, SC)-N-((5-(1-cyclopropylethyl)-2,3-dihydro-1H-inden-4-yl)carbamoyl)-2-(2-hydroxypropan-2-yl)thiazole-5-sulfonimidamide] as the compound, how does the IC50 read?
**A.** 100 to 500 nM

**Q.** Which IC50 does the source give for CC(c1cc(C#N)c2c(c1NC(=O)NS(=N)(=O)c1cc(C(C)(C)O)co1)CCC2)C1CC1 (racemic) [Compound 48-2, (RS, SC)- and (SS, SC)-N-((7-cyano-5-(1-cyclopropylethyl)-2,3-dihydro-1H-inden-4-yl)carbamoyl)-4-(2-hydroxypropan-2-yl)furan-2-sulfonimidamide] here?
**A.** 1000 to 5000 nM

**Q.** Which IC50 does the source give for CC(c1ccc2c(c1NC(=O)NS(=N)(=O)c1cc(C(C)(C)O)co1)CC2)C1CC1 (racemic) [Compound 36-2, (RS, SC)- and (SS, SC)-N-((3-(1-cyclopropylethyl)bicyclo[4.2.0]octa-1(6),2,4-trien-2-yl)carbamoyl)-4-(2-hydroxypropan-2-yl)furan-2-sulfonimidamide] here?
**A.** 1000 to 5000 nM

**Q.** For CC(C)c1cccc(C(C)C2CC2)c1NC(=O)NS(=N)(=O)c1cc(C(C)(C)O)co1 (racemic) [Compound 74-2, (RS, RC)- and (SS, RC)-N-((2-(1-cyclopropylethyl)-6-isopropylphenyl)carbamoyl)-4-(2-hydroxypropan-2-yl)furan-2-sulfonimidamide], which IC50 is on record?
**A.** 1000 to 5000 nM

**Q.** For CC(c1ccc2c(c1NC(=O)NS(=N)(=O)c1ccc(C(C)(C)O)s1)CCC2)C1CC1 (racemic) [Compound 51-2, (RS, SC)- and (SS, SC)-N-((5-(1-cyclopropylethyl)-2,3-dihydro-1H-inden-4-yl)carbamoyl)-5-(2-hydroxypropan-2-yl)thiophene-2-sulfonimidamide], which IC50 is on record?
**A.** 5000 to 10000 nM

**Q.** With CC(C)c1cccc(CC2CCC2)c1NC(=O)NS(=N)(=O)c1cc(C(C)(C)O)co1 (single isomer, unassigned) [Compound 70-1, RS- and SS-N-((2-(cyclobutylmethyl)-6-isopropylphenyl)carbamoyl)-4-(2-hydroxypropan-2-yl)furan-2-sulfonimidamide] as the compound, how does the IC50 read?
**A.** ≤ 100 nM

**Q.** With CC(C)(O)c1ncc(S(=N)(=O)NC(=O)Nc2c(CC3CCC3)ccc3c2CCC3)s1 (single isomer, unassigned) [Compound 19-2, RS- and SS-N-((5-(cyclobutylmethyl)-2,3-dihydro-1H-inden-4-yl)carbamoyl)-2-(2-hydroxypropan-2-yl)thiazole-5-sulfonimidamide] as the compound, how does the IC50 read?
**A.** 100 to 500 nM

Test system: not listed separately
Experiment: Pharmacokinetic analysis of compounds in rats
Type: in vivo, SD rats
Conditions: SD, rat, in vivo, iv, 1 mg/kg
Protocol: Healthy adult SD rats weighing 180-220 g were fasted (free access to water) overnight and divided into tail vein administration group and intragastric administration group. The tail vein administration group was subjected to blood collection of 0.1 mL from orbital venous plexus before the administration and 5 min, 15 min, 0.5 h, 1 h, 2 h, 4 h, 8 h, 12 h and 24 h after the administration, and plasma was separated out by centrifugation at 4° C. for 5 min and stored at −20° C. for test. The intragastric administration group was subjected to blood collection of 0.1 mL from orbital venous plexus before the administration and 5 min, 15 min, 0.5 h, 1 h, 2 h, 4 h, 8 h, 12 h and 24 h after the administration, and the subsequent treatment procedures were the same as those of the tail vein injection group. The concentration of parent drug in the plasma was determined by LC-MS/MS.

**Q.** With CC(C)(O)c1coc(S(=O)(=O)NC(=O)Nc2c3c(cc4c2CCC4)CCC3)c1 [Control 3, 1-(1,2,3,5,6,7-hexahydro-s-indacen-4-yl)-3-[4-(1-hydroxy-1-methyl-ethyl)-furan-2-sulfonyl]urea, reference compound] as the compound, how does the AUC read?
**A.** 1400 ng·h/mL

**Q.** And the Vd?
**A.** 0.402 L/kg

**Q.** And the clearance?
**A.** 14.2 mL/min/kg

**Q.** And the half-life?
**A.** 0.46 h

Same assay, conditions: SD, rat, in vivo, po

**Q.** For CC(C)(O)c1coc(S(=O)(=O)NC(=O)Nc2c3c(cc4c2CCC4)CCC3)c1 [Control 3, 1-(1,2,3,5,6,7-hexahydro-s-indacen-4-yl)-3-[4-(1-hydroxy-1-methyl-ethyl)-furan-2-sulfonyl]urea, reference compound], which bioavailability is on record?
**A.** 36.4%

Same assay, conditions: SD, rat, in vivo, po, 10 mg/kg

**Q.** With CC(C)(O)c1coc(S(=O)(=O)NC(=O)Nc2c3c(cc4c2CCC4)CCC3)c1 [Control 3, 1-(1,2,3,5,6,7-hexahydro-s-indacen-4-yl)-3-[4-(1-hydroxy-1-methyl-ethyl)-furan-2-sulfonyl]urea, reference compound] as the compound, how does the AUC read?
**A.** 5080 ng·h/mL

**Q.** And the Cmax?
**A.** 1930 ng/mL

**Q.** What about the half-life of the same compound?
**A.** 2.1 h
